Measurements taken from patent US9944589B2, “Cycloproplyamine derivatives useful as inhibitors of histone demethylases KDM1A” (Istituto Europeo de Oncologia S.r.L., priority 2012, dated 2018).
Structures can show the parent of a compound that is named as a salt.

Legend:
[1] = biological target: T1, human recombinant KDM1A (LSD1)/CoRest (Homo sapiens, UniProt O60341); experiment: Assay of enzyme inhibition of KDM1A (LSD1), Amplex UltraRed/peroxidase coupled; type: biochemical; settings: 15 min preincubation, 4.5 μM mono-methylated H3-K4 peptide, range classes, read-out: IC50 [μM], KDM1A inhibition assay
T1 construct: made in house; host or cells: E. coli
Procedure, shortened: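 KDM1A/CoRest complex with inhibitor (e.g. 0–100 μM) and Amplex UltraRed/peroxidase preincubated 15 min at RT. Substrate: mono-methylated H3K4 21-mer peptide in 50 mM Tris pH 8, 0.05 mg/ml BSA, aerobic. IC50 from duplicates run twice, background-corrected.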

[2] = tested on: Acute promyelocytic leukemia NB4 cells; experiment: Cell growth (CellTiter-Fluor cell viability assay); type: cell-based; settings: Homo sapiens, NB-4, 48 h, range classes, read-out: IC50 [μM], cell growth inhibitory assay
Source text: CellTiter-Flor® (Promega) is as a nonlytic, single-reagent-addition fluorescence assay that measures the relative number of living cells in a culture population after experimental manipulation. The CellTiter-Fluor™ Cell Viability Assay measures the conserved and constitutive protease activity within live cells and therefore acts as a marker for cell viability.
Acute promyelocytic leukemia NB4 cells, (obtained from the Deutsche Sammlung von Mikroorganismen and Zellkulturen) in exponential growth, were incubated for 48 h with different concentrations of the inhibitors. After 48 h a volume of CellTiter-Fluor® Reagent equal to one fifth of volume of cell culture medium was added. The content was mixed and incubates for at least 90 min at 37° C. degree to obtain a stable signal. The fluorescence was recorded using an excitation wavelength of 360 nm and an emission at 535 nm. The IC50 was calculated using GraphPad Software.

CC[C@@]1(N)C[C@H]1c1cccc(NC(=O)Cc2cccc3ccccc23)c1 (relative stereo) [Example A-77, N-[3-[trans-2-amino-2-ethyl-cyclopropyl]phenyl]-2-(1-naphthyl) acetamide hydrochloride]
IC50 [1]: 0.1 to 1 µM
IC50 [2]: 10 to 50 µM

N[C@]1(Cc2ccc3ccccc3c2)C[C@H]1c1ccc(NC(=O)c2cccc(Cl)c2)cc1 (relative stereo) [Example A-79, N-[4-[trans-2-amino-2-(2-naphthylmethyl)cyclopropyl]phenyl]-3-chloro-benzamide hydrochloride]
IC50 [1]: < 0.1 µM
IC50 [2]: 10 to 50 µM

CC[C@@]1(N)C[C@H]1c1cccc(NC(=O)c2cccc(Cl)c2)c1 (relative stereo) [Example A-80, N-[3-[trans-2-amino-2-ethyl-cyclopropyl]phenyl]-3-chloro-benzamide hydrochloride]
IC50 [1]: 0.1 to 1 µM
IC50 [2]: 10 to 50 µM

CC[C@@]1(N)C[C@H]1c1ccc(NC(=O)c2ccc(N3CCOC3=O)cc2)cc1 (relative stereo) [Example A-83, N-[4-[trans-2-amino-2-ethyl-cyclopropyl]phenyl]-4-(2-oxooxazolidin-3-yl)benzamide hydrochloride]
IC50 [1]: < 0.1 µM
IC50 [2]: ≤ 10 µM

N[C@]1(c2ccccc2)C[C@H]1c1ccc(NC(=O)c2cccc(NC(=O)OCc3ccccc3)c2)cc1 (relative stereo) [Example A-84, benzyl N-[3-[(4-[trans-2-amino-2-phenyl-cyclopropyl]phenyl)carbamoyl]phenyl]carbamate 2,2,2-trifluoroacetic acid]
IC50 [1]: < 0.1 µM
IC50 [2]: 10 to 50 µM

N[C@]1(c2ccccc2)C[C@H]1c1ccc(NC(=O)c2ccc3ccccc3c2)cc1 (relative stereo) [Example A-85, N-[4-[trans-2-amino-2-phenyl-cyclopropyl]phenyl] naphthalene-2-carboxamide hydrochloride]
IC50 [1]: < 0.1 µM
IC50 [2]: ≤ 10 µM

CC[C@@]1(N)C[C@H]1c1ccc(NC(=O)c2ccccc2)c(F)c1 (relative stereo) [Example A-86, N-[4-[trans-2-amino-2-ethyl-cyclopropyl]-2-fluoro-phenyl]benzamide hydrochloride]
IC50 [1]: < 0.1 µM
IC50 [2]: 50 to 100 µM

CC[C@@]1(N)C[C@H]1c1ccc(NC(=O)c2ccc(-c3ccccc3)cc2)c(F)c1 (relative stereo) [Example A-87, N-[4-[trans-2-amino-2-ethyl-cyclopropyl]-2-fluoro-phenyl]-4-phenyl-benzamide hydrochloride]
IC50 [1]: < 0.1 µM
IC50 [2]: 10 to 50 µM

CC[C@@]1(N)C[C@H]1c1ccc(NC(=O)c2ccc(N3CCOCC3)cc2)cc1 (relative stereo) [Example A-88, N-[4-[trans-2-amino-2-ethyl-cyclopropyl]phenyl]-4-morpholino-benzamide 2,2,2-trifluoroacetic acid]
IC50 [1]: < 0.1 µM
IC50 [2]: 10 to 50 µM

N[C@]1(c2ccccc2)C[C@H]1c1ccc(NC(=O)c2ccc(-c3ccccc3)cc2)cc1 (relative stereo) [Example A-89, N-[4-[trans-2-amino-2-phenyl-cyclopropyl]phenyl]-4-phenyl-benzamide 2,2,2-trifluoroacetic acid]
IC50 [1]: < 0.1 µM
IC50 [2]: ≤ 10 µM

N[C@]1(c2ccccc2)C[C@H]1c1ccc(NC(=O)c2cccc3ccccc23)cc1 (relative stereo) [Example A-90, N-[4-[trans-2-amino-2-phenyl-cyclopropyl]phenyl] naphthalene-1-carboxamide hydrochloride]
IC50 [1]: < 0.1 µM
IC50 [2]: ≤ 10 µM

CC[C@@]1(N)C[C@H]1c1cccc(NC(=O)c2ccc(-c3ccccc3)cc2)c1 (relative stereo) [Example A-91, N-[3-[trans-2-amino-2-ethyl-cyclopropyl]phenyl]-4-phenyl-benzamide hydrochloride]
IC50 [1]: 0.1 to 1 µM
IC50 [2]: 10 to 50 µM

CC[C@@]1(N)C[C@H]1c1cccc(NC(=O)c2ccc3ccccc3c2)c1 (relative stereo) [Example A-92, N-[3-[trans-2-amino-2-ethyl-cyclopropyl]phenyl] naphthalene-2-carboxamide hydrochloride]
IC50 [1]: 0.1 to 1 µM
IC50 [2]: 10 to 50 µM

CC[C@@]1(N)C[C@H]1c1ccc(NC(=O)c2ccc(NC(=O)OCc3ccccc3)cc2)c(F)c1 (relative stereo) [Example A-95, benzyl N-[4-[[4-[trans-2-amino-2-ethyl-cyclopropyl]-2-fluoro-phenyl]carbamoyl]phenyl]carbamate hydrochloride]
IC50 [1]: 0.1 to 1 µM
IC50 [2]: ≤ 10 µM

CC[C@@]1(N)C[C@H]1c1ccc(NC(=O)c2ccc(N3CCN(C)CC3)cc2)cc1 (relative stereo) [Example A-97, N-[4-[trans-2-amino-2-ethyl-cyclopropyl]phenyl]-4-(4-methylpiperazin-1-yl)benzamide 2,2,2-trifluoroacetic acid]
IC50 [1]: < 0.1 µM
IC50 [2]: 10 to 50 µM

CC[C@@]1(N)C[C@H]1c1ccc(NC(=O)c2ccc(N3CCOCC3)c(NC(=O)OCc3ccccc3)c2)cc1 (relative stereo) [Example A-99, benzyl N-[5-[[4-[trans-2-amino-2-ethyl-cyclopropyl]phenyl]carbamoyl]-2-morpholino-phenyl]carbamate 2,2,2-trifluoroacetic acid]
IC50 [1]: < 0.1 µM
IC50 [2]: ≤ 10 µM

CC[C@@]1(N)C[C@H]1c1ccc(NC(=O)c2ccncc2)cc1 (relative stereo) [Example A-101, N-[4-(trans-2-amino-2-ethyl-cyclopropyl)phenyl] pyridine-4-carboxamide dihydrochloride]
IC50 [1]: < 0.1 µM
IC50 [2]: 10 to 50 µM

N[C@]1(CCc2ccccc2)C[C@H]1c1ccc(NC(=O)c2ccc(-c3ccccc3)cc2)cc1 (relative stereo) [Example A-113, N-[4-(trans-2-amino-2-phenethyl-cyclopropyl)phenyl]-4-phenyl-benzamide hydrochloride]
IC50 [1]: 0.1 to 1 µM
IC50 [2]: ≤ 10 µM

CN1CCC(c2ccc(C(=O)Nc3ccc([C@@H]4C[C@]4(N)CCc4ccccc4)cc3)cc2)CC1 (relative stereo) [Example A-115, N-[4-(trans-2-amino-2-phenethyl-cyclopropyl)phenyl]-4-(1-methyl-4-piperidyl)benzamide dihydrochloride]
IC50 [1]: < 0.1 µM
IC50 [2]: ≤ 10 µM

CC[C@@]1(N)C[C@H]1c1ccc(NC(=O)c2ccc(N3CCN(C)CC3)c(NC(=O)OCc3ccccc3)c2)cc1 (relative stereo) [Example A-117, benzyl N-[5-[[4-[trans-2-amino-2-ethyl-cyclopropyl]phenyl]carbamoyl]-2-(4-methylpiperazin-1-yl)phenyl] carbamate 2,2,2-trifluoroacetic acid]
IC50 [1]: 0.1 to 1 µM
IC50 [2]: ≤ 10 µM

N[C@]1(CCc2ccccc2)C[C@H]1c1ccc(NC(=O)c2cccc(N3CCOC3=O)c2)cc1 (relative stereo) [Example A-118, N-[4-(trans-2-amino-2-phenethyl-cyclopropyl)phenyl]-3-(2-oxooxazolidin-3-yl)benzamide 2,2,2-trifluoroacetic acid]
IC50 [1]: < 0.1 µM
IC50 [2]: ≤ 10 µM

CC[C@@]1(N)C[C@H]1c1ccc(-n2cc(-c3cccc(NC(=O)OCc4ccccc4)c3)nn2)cc1 (relative stereo) [Example A-121, Benzyl N-[3-[1-[4-[trans-2-amino-2-ethyl-cyclopropyl]phenyl]triazol-4-yl]phenyl]carbamate hydrochloride]
IC50 [1]: 0.1 to 1 µM
IC50 [2]: 50 to 100 µM

CC[C@@]1(N)C[C@H]1c1cccc(-n2cc(-c3ccccc3)nn2)c1 (relative stereo) [Example A-122, trans-1-ethyl-2-[3-(4-phenyltriazol-1-yl)phenyl]cyclopropan amine hydrochloride]
IC50 [1]: 0.1 to 1 µM
IC50 [2]: 10 to 50 µM

N[C@]1(Cc2ccc3ccccc3c2)C[C@H]1c1ccc(-n2cc(-c3ccccc3)nn2)cc1 (relative stereo) [Example A-124, trans-1-(2-naphthylmethyl)-2-[4-(4-phenyltriazol-1-yl)phenyl]cyclopropan amine hydrochloride]
IC50 [1]: 0.1 to 1 µM
IC50 [2]: 10 to 50 µM

N[C@]1(CNCc2ccccc2)C[C@H]1c1ccccc1 (relative stereo) [Example B-3, trans-1-(benzylamino)methyl-2-phenyl-cyclopropanamine dihydrochloride]
IC50 [1]: 1 to 5 µM
IC50 [2]: 50 to 100 µM

CN1CCN(C(=O)CN[C@]2(Cc3ccc4ccccc4c3)C[C@H]2c2ccccc2)CC1 (relative stereo) [Example C-24, 1-(4-methylpiperazin-1-yl)-2-[[trans-1-(2-naphthylmethyl)-2-phenyl-cyclopropyl]amino]ethanone dihydrochloride]
IC50 [1]: 0.1 to 1 µM
IC50 [2]: 10 to 50 µM

N[C@]1(c2ccc([N+](=O)[O-])cc2)C[C@H]1c1ccccc1 (relative stereo) [Example D-3, trans-1-(4-nitrophenyl)-2-phenyl-cyclopropanamine hydrochloride]
IC50 [1]: 0.1 to 1 µM
IC50 [2]: 10 to 50 µM

N[C@]1(c2ccccc2)C[C@H]1c1ccc(Cl)cc1 (relative stereo) [Example D-4, trans-2-(4-chlorophenyl)-1-phenyl-cyclopropanamine hydrochloride]
IC50 [1]: 0.1 to 1 µM
IC50 [2]: 50 to 100 µM
